Laboratory results: the NIST ThermoML archive (doi:10.1021/acs.jced.6b00929)
Numbers after ± are expanded uncertainties.

Experiments:
[1] = Molar enthalpy of transition or fusion; details: Crystal; DSC
[2] = Crystal; DTA

For CC(=O)Oc1ccc(C2CC(=O)c3c(OC(C)=O)cc(OC(C)=O)cc3O2)cc1 (configuration not stated) [4',5,7-triacetoxyflavanone], the “Molar enthalpy of transition or fusion” value [1] was 4.97 ± 0.263 kcal/mol and the Normal melting temperature [2] was 73.80 ± 0.46 °C.
